How the values were obtained:
Format in all cases: cell-based
Target C mRNA = assay: Gene panel canonical junction qPCR assay, Target C CJ mRNA decrease; conditions: Homo sapiens, canonical junction qPCR, read-out: Target C IC50 (decrease in CJ mRNA levels)
Method in brief: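 A673 or K562 cells treated with compound; canonical exon-exon junction mRNA quantified by cDNA synthesis and RT-qPCR with junction-spanning primer/probe, normalized to GAPDH, GUSB or PPIA and DMSO (2^(−ΔΔCt)). Percent response from set ΔCt assay windows fitted to 4-parameter logistic; IC50 for CJ decrease.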

MYB mRNA = assay: Splicing RT-qPCR assay, MYB canonical (CJ) and alternative (AJ) junction mRNA; conditions: Homo sapiens, A673 or K562 cells, 24 hours; for IC50: decrease in canonical junction mRNA; for AC50: increase in alternative junction mRNA
Method in brief: (§1)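 RT-qPCR read-out: CJ and AJ junction isoforms quantified from cell lysates, normalized to housekeeping GAPDH/GUSB (K562) or PPIA (A673). Cells had 24 h compound exposure, 11-point 3-fold series from 10 uM final, ≤0.25% DMSO.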

HTT mRNA = assay: Splicing RT-qPCR assay, HTT canonical (CJ) and alternative (AJ) junction mRNA; conditions: Homo sapiens, A673 or K562 cells, 24 hours; for IC50: decrease in canonical junction mRNA; for AC50: increase in alternative junction mRNA
Method in brief: as §1

Row | Compound | IC50 (Target C mRNA) [nM] | IC50 (MYB mRNA) [nM] | AC50 (MYB mRNA) [nM] | IC50 (HTT mRNA) [nM] | AC50 (HTT mRNA) [nM]
1 | COc1nc2c(N3C[C@@H](C)N[C@@H](C)C3)ccc(C(=O)Nc3cc(F)c4nc(C)cn4c3)c2nc1C [Compound 260, 8-((3R,5S)-3,5-dimethylpiperazin-1-yl)-N-(8-fluoro-2-methylimidazo[1,2-a]pyridin-6-yl)-2-methoxy-3-methylquinoxaline-5-carboxamide; 2,2,2-trifluoroacetate] | 1000 to 10000 | 100 to 1000 | 100 to 1000 | 100 to 1000 | 1000 to 10000
2 | Cc1cn2cc(NC(=O)c3c(F)cc(N4C[C@@H](C)N[C@@H](C)C4)c4nccnc34)cc(F)c2n1 [Compound 261, cis-8-[(3R,5S)-3,5-dimethylpiperazin-1-yl]-6-fluoro-N-{8-fluoro-2-methylimidazo[1,2-a]pyridin-6-yl}quinoxaline-5-carboxamide] | 1000 to 10000 | < 100 | < 100 | 1000 to 10000 | 1000 to 10000
3 | Cc1cn2cc(NC(=O)c3ccc(N4C5CNCC54)c4nccnc34)cc(F)c2n1 (stereo not shown) [Compound 262, 8-{3,6-diazabicyclo[3.1.0]hexan-6-yl}-N-{8-fluoro-2-methylimidazo[1,2-a]pyridin-6-yl}quinoxaline-5-carboxamide] | 100 to 1000 | 100 to 1000 | 100 to 1000 | 100 to 1000 | 100 to 1000
4 | Cc1cn2cc(NC(=O)c3ccc(N4C[C@@H](C)N[C@@H](C5CC5)C4)c4nccnc34)cc(F)c2n1 [Compound 266, 8-((3S,5R)-3-cyclopropyl-5-methylpiperazin-1-yl)-N-(8-fluoro-2-methylimidazo[1,2-a]pyridin-6-yl)quinoxaline-5-carboxamide] | > 10000 | < 100 | < 100 | 1000 to 10000 | 100 to 1000
5 | Cc1cn2cc(NC(=O)c3ccc(N4C[C@@H](C5CC5)N[C@@H](C)C4)c4nccnc34)cc(F)c2n1 [Compound 267, 8-((3R,5S)-3-cyclopropyl-5-methylpiperazin-1-yl)-N-(8-fluoro-2-methylimidazo[1,2-a]pyridin-6-yl)quinoxaline-5-carboxamide] | 1000 to 10000 | 100 to 1000 | 100 to 1000 | > 10000 | > 10000
6 | COc1ccc2c(N3C[C@@H](C)N[C@@H](C)C3)ccc(C(=O)Nc3cc(F)c4nc(C)cn4c3)c2n1 [Compound 268, 5-[(3R,5S)-3,5-dimethylpiperazin-1-yl]-N-{8-fluoro-2-methylimidazo[1,2-a]pyridin-6-yl}-2-methoxyquinoline-8-carboxamide] | 1000 to 10000 | 100 to 1000 | < 100 | 1000 to 10000 | 1000 to 10000
7 | Cc1cn2cc(NC(=O)c3ccc(N4CC[C@@H](N)C4)c4ccnnc34)cc(F)c2n1 [Compound 270] | > 10000 | 100 to 1000 | < 100 | 1000 to 10000 | 1000 to 10000
8 | COc1cc2c(N3C[C@@H](C)N[C@@H](C)C3)ccc(C(=O)Nc3cc(F)c4nc(C)cn4c3)c2nn1 [Compound 273, 5-[(3R,5S)-3,5-dimethylpiperazin-1-yl]-N-{8-fluoro-2-methylimidazo[1,2-a]pyridin-6-yl}-3-methoxycinnoline-8-carboxamide] | 100 to 1000 | 100 to 1000 | 100 to 1000 | 100 to 1000 | 100 to 1000
9 | Cc1cn2cc(NC(=O)c3ccc(N4C[C@@H](C)N[C@@H](C)C4)c4ncc(O)nc34)cc(F)c2n1 [Compound 275] | > 10000 | > 10000 | > 10000 | > 10000 | > 10000
10 | COc1nc(NC(=O)c2ccc(N3C[C@@H](C)N[C@@H](C)C3)c3nccnc23)cn2cc(C)nc12 [Compound 277] | 1000 to 10000 | < 100 | < 100 | 100 to 1000 | 1000 to 10000
11 | Cc1cn2cc(NC(=O)c3ccc(N4C[C@@H](C)N[C@@H](C)C4)c4nccnc34)nc(Cl)c2n1 [Compound 279] | > 10000 | < 100 | 100 to 1000 | > 10000 | > 10000
12 | Cc1cn2cc(NC(=O)c3ccc(N4C[C@@H](C)N[C@@H](C)C4)c4ncc(Cl)nc34)cc(F)c2n1 [Compound 281] | > 10000 | 1000 to 10000 | 1000 to 10000 | > 10000 | > 10000
13 | Cc1cn2cc(NC(=O)c3ccc(N4C[C@@H](C)N[C@@H](C)C4)c4ncc(N(C)C)nc34)cc(F)c2n1 [Compound 283] | 100 to 1000 | < 100 | 100 to 1000 | 100 to 1000 | 100 to 1000
14 | Cc1cn2c(C)c(NC(=O)c3ccc(N4C[C@@H](C)N[C@@H](C)C4)c4nccnc34)cc(F)c2n1 [Compound 285] | 1000 to 10000 | 100 to 1000 | 1000 to 10000 | 1000 to 10000 | 1000 to 10000
15 | COc1nc(NC(=O)c2ccc(N3C[C@@H](C)N[C@@H](C)C3)c3nccnc23)nc2cn(C)nc12 [Compound 287] | > 10000 | 1000 to 10000 | > 10000 | > 10000 | > 10000
16 | Cc1cn2cc(NC(=O)c3ccc(N4C[C@@H](C)N[C@@H](C)C4)c4nccnc34)nc(C)c2n1 [Compound 288] | 1000 to 10000 | < 100 | < 100 | 1000 to 10000 | 1000 to 10000
17 | C[C@@H]1CN(c2ccc(C(=O)Nc3ccc4nc(N(C)C)oc4c3)c3nccnc23)C[C@H](C)N1 [Compound 290] | > 10000 | 1000 to 10000 | > 10000 | > 10000 | > 10000
18 | COc1nc2ccc(NC(=O)c3ccc(N4C[C@@H](C)N[C@@H](C)C4)c4nccnc34)cc2o1 [Compound 292] | > 10000 | 1000 to 10000 | > 10000 | > 10000 | > 10000
19 | Cc1cn2cc(NC(=O)c3ccc(N4C[C@@H](C)N[C@@H](C)C4)c4nccnc34)cc(C#N)c2n1 [Compound 294] | > 10000 | 100 to 1000 | 100 to 1000 | 1000 to 10000 | > 10000
20 | CCOc1cnc2c(N3C[C@@H](C)N[C@@H](C)C3)ccc(C(=O)Nc3cc(F)c4nc(C)cn4c3)c2n1 [Compound 296] | 1000 to 10000 | < 100 | < 100 | 100 to 1000 | 100 to 1000
21 | COc1nc(NC(=O)c2ccc(N3C[C@@H](C)N[C@@H](C)C3)c3nccnc23)cc2oc(C)nc12 [Compound 298] | > 10000 | 100 to 1000 | 100 to 1000 | > 10000 | > 10000
22 | COc1ncc2c(N3C[C@@H](C)N[C@@H](C)C3)ccc(C(=O)Nc3cc(F)c4nc(C)cn4c3)c2n1 [Compound 300] | 100 to 1000 | < 100 | < 100 | 100 to 1000 | 100 to 1000
23 | Cc1cn2cc(NC(=O)c3ccc(N4C[C@@H](C)N[C@@H](C)C4)c4cncnc34)cc(F)c2n1 [Compound 302] | 1000 to 10000 | 100 to 1000 | 100 to 1000 | 1000 to 10000 | 1000 to 10000
24 | Cc1cn2cc(NC(=O)c3ccc(N4C[C@@H](C)N[C@@H](C)C4)c4nccnc34)cc(Cl)c2n1 [Compound 304] | > 10000 | < 100 | < 100 | 1000 to 10000 | > 10000
25 | C[C@@H]1CN(c2ccc(C(=O)Nc3cc(F)c4nc(Cl)cn4c3)c3nccnc23)C[C@H](C)N1 [Compound 306] | > 10000 | 100 to 1000 | 100 to 1000 | > 10000 | > 10000
26 | CNc1nc(NC(=O)c2ccc(N3C[C@@H](C)N[C@@H](C)C3)c3nccnc23)cn2cc(C)nc12 [Compound 308] | > 10000 | 1000 to 10000 | 1000 to 10000 | > 10000 | > 10000
